Source: PMC5750218, “Protein-inspired antibiotics active against vancomycin- and daptomycin-resistant bacteria” (Nature Communications, 2018)
In brackets after ≈: the same amount, converted by molar mass. Several values for one entry are separate records, joined by “and”; a condition that tells them apart may be missing. Equal entries are not always repeated.

How the values were obtained:
[1] = tested on: Vancomycin-intermediate S. aureus NRS1; assay: microbe, parasite or virus in culture
Outline: (§1)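 Broth microdilution in Mueller Hinton broth with twofold serial dilutions of compound from 8 to 0.003 µg mL^−1.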

[2] = tested on: Multi-drug-resistant S. pneumoniae ATCC 700677; assay: microbe, parasite or virus in culture
Outline: as §1

[3] = tested on: Methicillin-resistant S. aureus ATCC 43300; assay: microbe, parasite or virus in culture
Outline: as §1

Cytotoxicity MTT assay = format: cell-based, human; conditions: human
[4] = tested on: Vancomycin-resistant S. aureus NARSA VRS4; assay: microbe, parasite or virus in culture; format: cell-based, Staphylococcus aureus; conditions: Vancomycin-resistant NARSA VRS4
[5] = tested on: Vancomycin-resistant (VanA) Enterococcus faecium ATCC 51559; assay: microbe, parasite or virus in culture
Outline: as §1

S. aureus ATCC 43300 = assay: Membrane permeability assay (propidium iodide); format: cell-based, Staphylococcus aureus
Description: To evaluate the ability of the compounds to disrupt the cytoplasmic membrane integrity, the membrane impermeable fluorescent DNA intercalating dye propidium iodide (PI) was used. Early exponential phase cells were pelleted and washed twice in 10 mM HEPES buffer (pH 7.4) containing 50 µg mL^−1 of CaCl2 and 5 mM glucose, and then re-suspended in the same buffer (4 × 10^8 CFU mL^−1). Cell suspension was added to a 384-well black walled polystyrene plate (Corning, CLS3573) containing compounds, giving a final concentration of 16 µg mL^−1. After 1 h incubation at 37 °C, 5 µg mL^−1 of PI was added and fluorescence was monitored for 90 min using a Tecan Infinite® m1000 Pro Multi-mode reader (excitation/emission 535/620 nm). Data were corrected by subtraction of fluorescence signal arising from untreated cells in the presence of PI. […] Each sample was tested in quadruplicate and independent assays were performed twice showing similar results. Data was analysed and presented using Prism software.

[6] = tested on: Methicillin-sensitive S. aureus ATCC 29213; assay: microbe, parasite or virus in culture; format: cell-based, Staphylococcus aureus
Description: Antimicrobial activity of compounds was tested against a number of bacterial strains by broth microdilution (BMD) assay with MIC determination, including S. aureus (MSSA ATCC® 29213™, MRSA ATCC® 43300™, VISA NARSA NRS1, VISA NARSA NRS4), Streptococcus pneumoniae (MDR ATCC® 700677™) and Enterococcus faecium (MDR VanA ATCC® 51559™). ATCC strains were sourced from the American Type Culture Collection and NRS strains from NARSA (Network on Antimicrobial Resistance in S. aureus) via BEI Resources (www.beiresources.org). All compounds were prepared to 160 µg mL^−1 solution in water from a stock solution of 1 mM concentration.
[…] […] Standards ranged from 64 to 0.03 µg mL^−1 and compounds from 8 to 0.003 µg mL^−1 with final assay volumes of 100 µL per well. Gram-positive bacteria were cultured in Mueller Hinton broth (MHB) (Bactolaboratories, Cat. no. 211443) at 37 °C overnight. A sample of each culture was then diluted 40-fold in fresh MHB and incubated at 37 °C for 2–3 h. The resultant mid-log phase cultures were added to the compound-containing 96-well plates to give a final cell density of 5 × 10^5 colony forming unit (CFU) mL^−1. All the plates were covered and incubated at 37 °C for 24 h. MICs were the lowest concentration showing no visible growth.

[7] = polystyrene plate with 0.002% polysorbate-80
[8] = polystyrene plate, no polysorbate-80

CCCCCCCCCCC(=O)N[C@@H](CCCCN)C(=O)N[C@@H](CCCCN)C(=O)N[C@@H](CCCCN)C(=O)N[C@@H](CCCCNC(=O)[C@H]1NC(=O)[C@H]2NC(=O)[C@H](NC(=O)[C@@H]3NC(=O)[C@H](CC(N)=O)NC(=O)[C@H](NC(=O)[C@@H](CC(C)C)NC)[C@H](O)c4ccc(c(Cl)c4)Oc4cc3cc(c4O[C@@H]3O[C@H](CO)[C@@H](O)[C@H](O)[C@H]3O[C@H]3C[C@](C)(N)[C@H](O)[C@H](C)O3)Oc3ccc(cc3Cl)[C@H]2O)c2ccc(O)c(c2)-c2c(O)cc(O)cc21)C(=O)O [Compound 18, nC10CO-KKK-K(Vancomycin)-OH]
MIC VISA ([1]; Vancomycin-intermediate NRS1): 0.5 µg/mL (≈ 0.235 µM)
MIC MDR S.P. ([2]; ATCC 700677): 0.06 µg/mL (≈ 0.0282 µM)
MIC MRSA ([3]; ATCC 43300, 24 h): 0.045 µg/mL (≈ 0.0211 µM)
CC50 at 24 h (Cytotoxicity MTT assay): 106 µM
MIC VRSA [4]: 0.5 µg/mL (≈ 0.235 µM)

CCCCCCCCCCC(=O)N[C@@H](CCCCN)C(=O)N[C@@H](CCCCN)C(=O)N[C@@H](CCCCNC(=O)[C@H]1NC(=O)[C@H]2NC(=O)[C@H](NC(=O)[C@@H]3NC(=O)[C@H](CC(N)=O)NC(=O)[C@H](NC(=O)[C@@H](CC(C)C)NC)[C@H](O)c4ccc(c(Cl)c4)Oc4cc3cc(c4O[C@@H]3O[C@H](CO)[C@@H](O)[C@H](O)[C@H]3O[C@H]3C[C@](C)(N)[C@H](O)[C@H](C)O3)Oc3ccc(cc3Cl)[C@H]2O)c2ccc(O)c(c2)-c2c(O)cc(O)cc21)C(=O)O [Compound 19, nC10CO-KK-K(Vancomycin)-OH]
MIC VISA ([1]; Vancomycin-intermediate NRS1): 0.5 µg/mL (≈ 0.25 µM)
MIC MDR S.P. ([2]; ATCC 700677): 0.06 µg/mL (≈ 0.03 µM)
MIC VRE ([5]; ATCC 51559): 6 µg/mL (≈ 3 µM)
Membrane permeabilisation (propidium iodide fluorescence) (S. aureus ATCC 43300): little to no effect
MIC S. aureus ATCC 43300 MRSA, NBS ([3]; ATCC 43300): ≤ 0.016 µg/mL
MIC S. aureus ATCC 43300 MRSA, PP ([3]; ATCC 43300): 0.06 to 0.125 µg/mL
MIC S. aureus ATCC 43300 MRSA, PS ([3]; ATCC 43300): 0.063 µg/mL (≈ 0.0315 µM)
MIC S. aureus ATCC 43300 MRSA, PS+P-80 ([3]; ATCC 43300): 0.063 µg/mL (≈ 0.0315 µM)
MIC MRSA ([3]; ATCC 43300, 24 h): 0.03 µg/mL (≈ 0.015 µM)
CC50 at 24 h (Cytotoxicity MTT assay): 290 µM
MIC VRSA [4]: 1 µg/mL (≈ 0.499 µM)
MIC S. aureus ATCC29213 MSSA, NBS ([6]; ATCC 29213): ≤ 0.016 µg/mL
MIC S. aureus ATCC29213 MSSA, PP ([6]; ATCC 29213): 0.125 to 0.25 µg/mL
MIC S. aureus ATCC29213 MSSA, PS ([6]; ATCC 29213): 0.03 to 0.06 µg/mL
MIC S. aureus ATCC29213 MSSA, PS+P-80 ([6]; ATCC 29213): 0.031 µg/mL (≈ 0.0155 µM)

CN[C@H]1C(=O)N[C@@H]2Cc3ccc(cc3)Oc3cc4cc(c3O[C@@H]3O[C@H](C(=O)O)[C@@H](O)[C@H](O)[C@H]3NC(=O)CCCCCCCCC(C)C)Oc3ccc(cc3Cl)[C@@H](O)[C@@H]3NC(=O)[C@H](NC(=O)[C@@H]4NC(=O)[C@@H](NC2=O)c2cc(cc(O)c2Cl)Oc2cc1ccc2O)c1ccc(O)c(c1)-c1c(O[C@H]2O[C@H](CO)[C@@H](O)[C@H](O)[C@@H]2O)cc(O)cc1[C@@H](C(=O)NCCCN(C)C)NC3=O [Compound 3, Dalbavancin]
MIC VISA ([1]; S. aureus NRS1): 1 µg/mL (≈ 0.55 µM)
MIC MDR S.P. ([2]; S. pneumoniae ATCC 700677): 0.09 µg/mL (≈ 0.0495 µM)
MIC VRE ([5]; E. faecium MDR VanA ATCC 51559, substance alone): >8 µg/mL
Membrane permeabilisation (propidium iodide fluorescence) (S. aureus ATCC 43300): little to no effect
MIC MRSA ([3]; S. aureus ATCC 43300, NBS plates, MHB, 24 h, substance alone): 0.06 µg/mL and 0.03 µg/mL
MIC S. aureus ATCC 43300 MRSA, NBS ([3]; non-binding surface plate): ≤ 0.016 µg/mL
MIC S. aureus ATCC 43300 MRSA, PP ([3]; polypropylene plate): 0.063 µg/mL (≈ 0.0347 µM)
MIC S. aureus ATCC 43300 MRSA, PS+P-80 [3, 7]: ≤ 0.016 µg/mL
MIC S. aureus ATCC 43300 MRSA, PS [3, 8]: 0.25 µg/mL (≈ 0.138 µM)
MIC MSSA ([6]; S. aureus ATCC 29213): ≤0.016 µg/mL
MIC S. aureus ATCC29213 MSSA, NBS ([6]; non-binding surface plate): ≤ 0.016 µg/mL
MIC S. aureus ATCC29213 MSSA, PP ([6]; polypropylene plate): 0.125 µg/mL (≈ 0.0688 µM)
MIC S. aureus ATCC29213 MSSA, PS+P-80 [6, 7]: ≤ 0.016 µg/mL
MIC S. aureus ATCC29213 MSSA, PS [6, 8]: 0.25 µg/mL (≈ 0.138 µM)
